We go through eight molecules from ChEMBL document CHEMBL4177724, “Effect of side chain hydrophobicity and cationic charge on antimicrobial activity and cytotoxicity of helical peptoids” (Bioorg Med Chem Lett, 2018).

Molecules are shown by their SMILES. ≈ marks a conversion by molar mass, not a printed value. Non-standard residues stand in square brackets, D forms with d. Residues, ends and D or L forms follow the SMILES beside them. Nspe = C[C@H](NCC(=O)O)c1ccccc1; Nlys = NCCCCNCC(=O)O

Series [1] is described as follows: Cytotoxicity against human LNCAP cells assessed as reduction in cell viability incubated for 24 hrs by MTS assay. It counts as cell-based. As to conditions: read-out: LC50.
Series [2] is described as follows: Cytotoxicity against human MRC5 cells assessed as reduction in cell viability incubated for 24 hrs by MTS assay. It counts as cell-based. As to conditions: read-out: LC50.
The next series has as its system Bacillus subtilis. Kind of series: Antibacterial activity against Bacillus subtilis then incubated at 37 degC for 24 hrs by broth dilution assay. In kind it is functional.
A short description of series [3]: Induction of hemolysis in Sprague-Dawley rat erythrocytes at 200 uM incubated at 37 degC for 60 mins by spectrophotometry. In kind it is cell-based, Erythrocyte. As to conditions: read-out: Activity.
For the next series, the system named is Escherichia coli. Kind of series: Antibacterial activity against Escherichia coli then incubated at 37 degC for 24 hrs by broth dilution assay. In kind it is functional.
Series [4] can be described thus: Cytotoxicity against human Jurkat cells assessed as reduction in cell viability incubated for 24 hrs by MTS assay. In kind it is cell-based. The settings on record: read-out: LC50.
In a further series the test system is Erythrocyte. Description: (§1) Induction of hemolysis in Sprague-Dawley rat erythrocytes incubated at 37 degC for 60 mins by spectrophotometry. It counts as cell-based. As to conditions: erythrocyte, 1 h.
Series [5] in a line: as §1. In kind it is cell-based, Erythrocyte. As to conditions: Sprague-Dawley, erythrocytes, read-out: HD50.

With `C[C@@H](c1ccc(F)cc1)N(CC(N)=O)C(=O)CN(C(=O)CN(CCCCN)C(=O)CN(C(=O)CN(C(=O)CN(CCCCN)C(=O)CN(C(=O)CN(C(=O)CN(CCCCN)C(=O)CN(C(=O)CN(C(=O)CNCCCCN)[C@@H](C)c1ccc(F)cc1)[C@@H](C)c1ccc(F)cc1)[C@@H](C)c1ccc(F)cc1)[C@@H](C)c1ccc(F)cc1)[C@@H](C)c1ccc(F)cc1)[C@@H](C)c1ccc(F)cc1)[C@@H](C)c1ccc(F)cc1`, the CC50 at 24 h in series [1] is 9.5 µM; in series [2] it was 9.5 µM; in series [4], 2.47 µM. For the same molecule, the MIC against Bacillus subtilis turned out to be 0.4 µM (≈ 0.785 µg/mL); in the series on Escherichia coli, 3.1 µM (≈ 6.09 µg/mL). Besides, in series [3], the hemolysis at 1 h, 200 µM stood at 100%. In addition, in the series on Erythrocyte, the HD10 is below 6.25 µM. Besides, the HC50 at 1 h in series [5] is below 6.25 µM.
In the case of `C[C@@H](c1ccccc1)N(CC(N)=O)C(=O)CN(C(=O)CN(CCCCN)C(=O)CN(C(=O)CN(C(=O)CN(CCCCN)C(=O)CN(C(=O)CN(C(=O)CN(CCCCN)C(=O)CN(C(=O)CN(C(=O)CNCCCCN)[C@@H](C)c1ccccc1)[C@@H](C)c1ccccc1)[C@@H](C)c1ccccc1)[C@@H](C)c1ccccc1)[C@@H](C)c1ccccc1)[C@@H](C)c1ccccc1)[C@@H](C)c1ccccc1` (H-[Nlys][Nspe][Nspe][Nlys][Nspe][Nspe][Nlys][Nspe][Nspe][Nlys][Nspe][Nspe]-NH2), the CC50 at 24 h in series [1] turned out to be 5 µM; in series [2], 8 µM; in series [4] it was 2.21 µM. Also, the MIC with Bacillus subtilis was 0.8 µM (≈ 1.46 µg/mL); in the series with Escherichia coli, 1.6 µM (≈ 2.91 µg/mL). Moreover, the hemolysis at 1 h, 200 µM in series [3] is 100%. In the series with Erythrocyte, this molecule gave an HD10 of 9.1 µM. The HC50 at 1 h in series [5] is 63.4 µM.
For `C[C@@H](c1ccccc1)N(CC(=O)N(CCCCN)CC(=O)N(CC(=O)N(CC(=O)N(CCCCN)CC(=O)N(CC(=O)N(CC(=O)N(CCCCN)CC(=O)N(CC(=O)N(CC(=O)N(CCCCN)CC(N)=O)[C@@H](C)c1ccccc1)[C@@H](C)c1ccccc1)[C@@H](C)c1ccccc1)[C@@H](C)c1ccccc1)[C@@H](C)c1ccccc1)[C@@H](C)c1ccccc1)C(=O)CN(C(=O)CNCCCCN)[C@@H](C)c1ccccc1` (H-[Nlys][Nspe][Nspe][Nlys][Nspe][Nspe][Nlys][Nspe][Nspe][Nlys][Nspe][Nspe][Nlys]-NH2), the CC50 at 24 h in series [2] was 10 µM; in series [4] it was 5.04 µM. Also, the MIC in the series on Bacillus subtilis worked out at 0.4 µM (≈ 0.779 µg/mL); against Escherichia coli, 1.6 µM (≈ 3.12 µg/mL). In addition, in series [3], the hemolysis at 1 h, 200 µM turned out to be 48.1%. Besides, in the series on Erythrocyte, the HD10 was 19.5 µM. Besides, in series [5], the HC50 at 1 h is above 200 µM.
With `C[C@H](c1ccccc1)N(CC(N)=O)C(=O)CN(C(=O)CN(CCCCN)C(=O)CN(C(=O)CN(C(=O)CN(CCCCN)C(=O)CN(C(=O)CN(C(=O)CNCCCCN)[C@H](C)c1ccccc1)[C@@H](C)c1ccccc1)[C@H](C)c1ccccc1)[C@@H](C)c1ccccc1)[C@H](C)c1ccccc1` (stereo in doubt), the CC50 at 24 h turned out to be 27 µM in series [1], 40 µM in series [2] and 18.6 µM in series [4]. Moreover, the figures for the MIC with Bacillus subtilis and in the series with Escherichia coli were 1.6 µM (≈ 2.19 µg/mL) and 3.1 µM (≈ 4.24 µg/mL), respectively. In addition, the hemolysis at 1 h, 200 µM in series [3] worked out at 38.7%. Also, the HD10 in the series on Erythrocyte came to 119.5 µM. Further, the HC50 at 1 h in series [5] is above 200 µM.
Take `CC[C@H](C)[C@H](NC(=O)CN)C(=O)NCC(=O)N[C@@H](CCCCN)C(=O)N[C@@H](Cc1ccccc1)C(=O)N[C@@H](CC(C)C)C(=O)N[C@@H](CCCCN)C(=O)N[C@@H](CCCCN)C(=O)N[C@@H](C)C(=O)N[C@@H](CCCCN)C(=O)N[C@@H](CCCCN)C(=O)N[C@@H](Cc1ccccc1)C(=O)NCC(=O)N[C@@H](CCCCN)C(=O)N[C@@H](C)C(=O)N[C@@H](Cc1ccccc1)C(=O)N[C@H](C(=O)N[C@@H](CCCCN)C(=O)N[C@H](C(=O)N[C@@H](CC(C)C)C(=O)N[C@@H](CCCCN)C(=O)N[C@@H](CCCCN)C(N)=O)[C@@H](C)CC)C(C)C` [PEXIGANAN] (H-GIGKFLKKAKKFGKAFVKILKK-NH2): in series [2], the CC50 at 24 h came out at 21.2 µM. Further, the MIC with Bacillus subtilis worked out at 0.4 µM (≈ 0.991 µg/mL); with Escherichia coli it was 0.8 µM (≈ 1.98 µg/mL). Besides, the hemolysis at 1 h, 200 µM in series [3] was 21.5%. In the series on Erythrocyte, this molecule came in with an HD10 of 113.4 µM. Further, the HC50 at 1 h in series [5] was above 200 µM.
For the molecule `Cc1ccc([C@H](C)N(CC(N)=O)C(=O)CN(C(=O)CN(CCCCN)C(=O)CN(C(=O)CN(C(=O)CN(CCCCN)C(=O)CN(C(=O)CN(C(=O)CN(CCCCN)C(=O)CN(C(=O)CN(C(=O)CNCCCCN)[C@@H](C)c2ccc(C)cc2)[C@@H](C)c2ccc(C)cc2)[C@@H](C)c2ccc(C)cc2)[C@@H](C)c2ccc(C)cc2)[C@@H](C)c2ccc(C)cc2)[C@@H](C)c2ccc(C)cc2)[C@@H](C)c2ccc(C)cc2)cc1`, the results for the CC50 at 24 h in series [1] and in series [2] were 12 µM and 8 µM, respectively. Moreover, the figures for the MIC against Bacillus subtilis and against Escherichia coli were 0.8 µM (≈ 1.55 µg/mL) and above 6.1 µM, respectively. Further, the hemolysis at 1 h, 200 µM in series [3] came to 100%. This molecule came in with an HD10 with Erythrocyte below 6.25 µM. The HC50 at 1 h in series [5] was found to be 8.3 µM.
Turning to `C[C@@H](c1ccccc1)N(CC(=O)N(CCCCN)CC(=O)N(CC(=O)N(CC(=O)N(CCCCN)CC(=O)N(CC(=O)N(CC(=O)N(CCCCN)CC(N)=O)[C@@H](C)c1ccccc1)[C@@H](C)c1ccccc1)[C@@H](C)c1ccccc1)[C@@H](C)c1ccccc1)C(=O)CN(C(=O)CNCCCCN)[C@@H](C)c1ccccc1` (H-[Nlys][Nspe][Nspe][Nlys][Nspe][Nspe][Nlys][Nspe][Nspe][Nlys]-NH2), the CC50 at 24 h in series [2] is 80.5 µM; in series [4], 28.9 µM. The values for the MIC against Bacillus subtilis and in the series on Escherichia coli were 0.8 µM (≈ 1.2 µg/mL) and 1.6 µM (≈ 2.4 µg/mL), respectively. Also, the hemolysis at 1 h, 200 µM in series [3] amounted to 9.8%. The molecule also had an HD10 in the series on Erythrocyte above 200 µM. In addition, in series [5], the HC50 at 1 h was above 200 µM.
Consider `C[C@@H](c1ccc(Cl)cc1)N(CC(N)=O)C(=O)CN(C(=O)CN(CCCCN)C(=O)CN(C(=O)CN(C(=O)CN(CCCCN)C(=O)CN(C(=O)CN(C(=O)CN(CCCCN)C(=O)CN(C(=O)CN(C(=O)CNCCCCN)[C@@H](C)c1ccc(Cl)cc1)[C@@H](C)c1ccc(Cl)cc1)[C@@H](C)c1ccc(Cl)cc1)[C@@H](C)c1ccc(Cl)cc1)[C@@H](C)c1ccc(Cl)cc1)[C@@H](C)c1ccc(Cl)cc1)[C@@H](C)c1ccc(Cl)cc1`, for which the CC50 at 24 h worked out at 10 µM in series [1], 3 µM in series [2] and 1.58 µM in series [4]. Besides, the minimum inhibitory concentration (MIC) in the series on Bacillus subtilis was 6.1 µM (≈ 12.8 µg/mL); against Escherichia coli, above 6.1 µM. Moreover, in series [3], the hemolysis at 1 h, 200 µM is 100%. This molecule gave an HD10 in the series with Erythrocyte below 6.25 µM. Besides, the HC50 at 1 h in series [5] is 10.4 µM.
